Patent US11945814B2, “Salt form” (CRT Pioneer Fund LP, priority 2018, dated 2024)
Blank lines part the entries; values can stand above or below the molecule they belong to.

How the values were obtained:
[1] = Solubility of the diphosphate salt in a range of dissolution media; assay type: physicochemical
Description: The pH of the aqueous mixtures were also measured.

[2] = Stability assessment after storage at 40° C. and 75% RH for 3 weeks; assay type: physicochemical
Description: FIG. 3 compares the XRPD of the diphosphate salt (Form A) before (bottom) and after (top) storage at 40° C. and 75% RH.

[3] = Dynamic vapour sorption (DVS) assessment; assay type: physicochemical
Description: The ability of samples studied to absorb moisture (or not) over a set of well-determined humidity ranges was assessed.
Sorption isotherms were obtained using a Hiden Isochema moisture sorption analyser (model IGAsorp), controlled by IGAsorp Systems Software V6.50.48. The sample was maintained at a constant temperature (25° C.) by the instrument controls. The humidity was controlled by mixing streams of dry and wet nitrogen, with a total flow of 250 ml·min^−1. The instrument was verified for relative humidity content by measuring three calibrated Rotronic salt solutions (10-50-88%). The weight change of the sample was monitored as a function of humidity by a microbalance (accuracy+/−0.005 mg). A defined amount of sample (typically 10-15 mg powder) was placed in a tared mesh stainless steel basket under ambient conditions. A full experimental cycle typically consisted of three scans (desorption, sorption, and desorption) at a constant temperature (25° C.) and 10% RH intervals over a 0-90% range (60 minutes for each humidity level).
Solids are then held post cycle at 0% RH for 2-3 hours and tested by XRPD and the remainder held at 90% RH for 2-3 hours and re-tested by XRPD.

[4] = Solubility of the diphosphate salt in a range of dissolution media; assay type: physicochemical; conditions: thermodynamic from solid, 37° C., minimum of 21 hours
[5] = biological target: T1, MPS1 kinase (Homo sapiens, UniProt P33981); conditions: cited from earlier work
T1 sequence (P33981 1-857): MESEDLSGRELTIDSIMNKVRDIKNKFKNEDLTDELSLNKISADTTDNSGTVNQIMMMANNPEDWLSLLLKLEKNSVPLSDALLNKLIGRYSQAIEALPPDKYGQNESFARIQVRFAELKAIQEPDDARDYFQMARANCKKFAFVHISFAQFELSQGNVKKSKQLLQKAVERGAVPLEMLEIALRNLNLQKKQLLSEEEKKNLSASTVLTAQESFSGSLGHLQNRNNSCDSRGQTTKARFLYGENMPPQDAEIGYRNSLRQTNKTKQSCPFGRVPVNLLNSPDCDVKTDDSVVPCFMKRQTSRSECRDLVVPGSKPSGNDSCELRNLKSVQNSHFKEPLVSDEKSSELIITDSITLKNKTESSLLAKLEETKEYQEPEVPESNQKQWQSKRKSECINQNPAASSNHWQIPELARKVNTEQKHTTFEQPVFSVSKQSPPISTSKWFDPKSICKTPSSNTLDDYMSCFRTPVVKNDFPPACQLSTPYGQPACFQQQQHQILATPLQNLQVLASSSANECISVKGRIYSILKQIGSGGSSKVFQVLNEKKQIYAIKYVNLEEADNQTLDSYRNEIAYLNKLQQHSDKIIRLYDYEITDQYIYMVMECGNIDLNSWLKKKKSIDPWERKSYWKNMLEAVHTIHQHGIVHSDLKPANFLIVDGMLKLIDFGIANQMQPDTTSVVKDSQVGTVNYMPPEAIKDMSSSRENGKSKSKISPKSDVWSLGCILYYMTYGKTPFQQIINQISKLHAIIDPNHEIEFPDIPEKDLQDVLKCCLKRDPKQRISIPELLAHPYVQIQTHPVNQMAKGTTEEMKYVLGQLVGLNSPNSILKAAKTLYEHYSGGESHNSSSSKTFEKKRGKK

pH of the aqueous mixture ([1]; Acetate buffer, pH 4.5): 4.25
pH of the aqueous mixture ([1]; FaSSIF, pH 6.5): 2.07
pH of the aqueous mixture ([1]; FeSSIF, pH 5): 2.36
pH of the aqueous mixture ([1]; NaCl,0.9%/DMSO/Tween 20): 2.13
pH of the aqueous mixture ([1]; Phosphate buffer, pH 6.7): 2.38
pH of the aqueous mixture ([1]; SFaGF, pH 1.6): 1.72
pH of the aqueous mixture ([1]; Sodium chloride 0.9% w/v): 1.88
pH of the aqueous mixture ([1]; Water, deionised): 1.91
Chemical degradation after storage [2]: no evidence of chemical degradation
Hydration after storage [2]: no evidence
Form modification after storage (XRPD) ([2]; FIG. 3): No evidence of form modification
Change in appearance after storage ([2]; loose screw top vials): No change in appearance
Water uptake/loss ([3]; DVS, 0 to 90% RH, 25° C.): 4.03%
Water uptake/loss as equivalents of water ([3]; DVS, 0 to 90% RH, 25° C.): about 1.5 equivalents of water
Flow of the solid post DVS ([3]; post DVS and exposure to 90% RH): free flowing
Form change post DVS (XRPD) ([3]; post DVS at 0% RH and at 90% RH, FIG. 5): no evidence of form change
solubility ([4]; aqueous buffer, Acetate buffer, pH 4.5): 0.02 mg/mL
solubility ([4]; aqueous buffer, Phosphate buffer, pH 6.7): 30 mg/mL
solubility ([4]; aqueous with cosolvent or surfactant or cyclodextrin, NaCl,0.9%/DMSO/Tween 20): 30.2 mg/mL
solubility ([4]; fassgf or other biorelevant, SFaGF, pH 1.6): 30.5 mg/mL
solubility ([4]; organic solvent or mixture, PEG300): 4.17 mg/mL
solubility ([4]; saline or isotonic, Sodium chloride 0.9% w/v): 30.5 mg/mL
solubility ([4]; FaSSIF, pH 6.5): 29.7 mg/mL
solubility ([4]; FeSSIF, pH 5): 10.9 mg/mL
solubility ([4]; Water, deionised): 30.2 mg/mL
SMILES: CCOc1cc(-c2nncn2C)ccc1Nc1ncc2cc(C)nc(NCC(C)(C)C)c2n1 [N2-(2-ethoxy-4-(4-methyl-4H-1,2,4-triazol-3-yl)phenyl)-6-methyl-N8-neopentylpyrido[3,4-d]pyrimidine-2,8-diamine]
DVS profile (reversibility, hysteresis) ([3]; 0-90% RH, 25° C., FIG. 4): reversible water uptake over the humidity range and no hysteresis

SMILES: CCOc1cc(-c2nncn2C)ccc1Nc1ncc2cc(C)nc(NCC(C)(C)C)c2n1 [compound I, N2-(2-ethoxy-4-(4-methyl-4H-1,2,4-triazol-3-yl)phenyl)-6-methyl-N8-neopentylpyrido[3,4-d]pyrimidine-2,8-diamine]
MPS1 kinase inhibitory activity [5]: potent
